Results: the NIST ThermoML archive (doi:10.1016/j.jct.2007.04.009)

Assay: cn = amount concentration of the nth substance listed, in mol/dm3
Conditions: 101 kPa, Liquid; for speed of sound: Sing-around technique in a fixed-path interferometer; for mass density: Vibrating tube method

Cl [hydrogen chloride] + O
Conditions	mass density, c1 = 0.001 [kg/m3]	mass density, c1 = 0.01 [kg/m3]	speed of sound, c1 = 0.001 [m/s]	speed of sound, c1 = 0.01 [m/s]
283.15 K	999.726	999.891	1447.9	1448.2
293.15 K	998.23	998.393	1482.6	1482.7
298.15 K	997.067	997.231	1496.8	1496.9
303.15 K	995.67	995.834	1509.3	1509.3
308.15 K	994.057	994.318	1520	1520
313.15 K	992.244	992.405	1529.1	1529.1
